The values that follow come from publication doi:10.1101/2025.01.15.632643v1 (biorxiv, 2025).

Each structure is given as a SMILES string. Read-outs that look alike come from different tables or passages of the source. Some results are limits rather than exact numbers.

For experiment [1], the target named is T1, His-ZZ-DYRK1B kinase domain (DYRK1B protein) (Homo sapiens, UniProt Q9Y463). The following applies: read-out: DYRK1B Transient heating; with transient heating (20 sec); inhibitor.
Experiment [2] addresses T2, His-ZZ-DYRK1A kinase domain (DYRK1A protein) (Homo sapiens, UniProt Q13627). The following applies: read-out: DYRK1A Transient heating; with transient heating (20 sec); inhibitor.
Experiment [3] deals with T2, His-ZZ-DYRK1A kinase domain (DYRK1A protein). As to conditions: read-out: DYRK1A –; without transient heating; inhibitor.
For experiment [4], the target named is T1, His-ZZ-DYRK1B kinase domain (DYRK1B protein). As to conditions: read-out: DYRK1B –; without transient heating; inhibitor.
Experiment [5] shares this target. As to conditions: read-out: DYRK1B Transient heating; inhibitor.
For experiment [6] the target is unchanged. As to conditions: read-out: DYRK1B –; inhibitor.
Experiment [7] deals with T2, His-ZZ-DYRK1A kinase domain (DYRK1A protein). The experiment can be described thus: biochemical. The following applies: read-out: kon.
Experiment [8] shares this target. In words: biochemical. As to conditions: read-out: koff.
The target is the same in experiment [9]. In words: luminescent kinase assay after transient heating. In kind it is biochemical.
Experiment [10] deals with T1, His-ZZ-DYRK1B kinase domain (DYRK1B protein). The experiment can be described thus: biochemical. The following applies: read-out: koff.
For experiment [11] the target is unchanged. In words: biochemical. As to conditions: read-out: kon.
For experiment [12] the target is unchanged. The experiment can be described thus: luminescent kinase assay after transient heating. The following applies: […] °C […] sec heating with compound, then ATP […], DYRKtide […], pH […]. In kind it is biochemical.

Consider `COc1ccc(/C=C2\SC(=S)NC2=O)cc1/C=C/C(C)(C)C` [dstb-dFINDY], for which the IC50 is 7.4 µM in [1], more than 32 µM in experiment [2] and more than 32 µM in experiment [3].

As to `COc1ccc(/C=C2\SC(=S)NC2=O)cc1C#C[Si]([Si](C)(C)C)([Si](C)(C)C)[Si](C)(C)C` [ts-FINDY], the values for the IC50 in experiment [4] and in experiment [1] were more than 32 µM and 4.6 µM, respectively.

Take `COc1ccc(/C=C2\SC(=S)NC2=O)cc1C#C[Si](c1ccccc1)(c1ccccc1)c1ccccc1` [tp-FINDY]: the results for the IC50 in [4] and in experiment [1] were more than 32 µM and 5.8 µM, respectively.

As for `COc1ccc(/C=C2\NC(=S)NC2=O)cc1C#C[Si](C)(c1ccccc1)c1ccccc1` [compound 4, RD1408], in experiment [5], the IC50 is 14 µM.

Turning to `COc1ccc(/C=C2\SC(=S)NC2=O)cc1/C=C/[Si](C)(C)C` [dFINDY], the IC50 was 4.9 µM in experiment [2] and more than 32 µM in experiment [3].

As for `C#Cc1cc(/C=C2\SC(=S)NC2=O)ccc1O` [compound 12, RD0562], the IC50 in experiment [5] and in experiment [6] was 23 µM in each case.

For orientation: kon means the rate constant with which the complex forms. As a reminder, the koff is the first-order rate constant of dissociation. As for `COc1ccc(/C=C2\SC(=S)NC2=O)cc1C#C[Si](C)(c1ccccc1)c1ccccc1` [compound 2, dp-FINDY], the kon in [7] was 0.28 M⁻¹ s⁻¹; in experiment [11] it was 200 M⁻¹ s⁻¹. Besides, the koff in experiment [8] was found to be 2.2e-07 s⁻¹; in experiment [10], 0.00012 s⁻¹. Moreover, the IC50 in experiment [9] was 2.6 µM; in experiment [5] it was 2.5 µM; in experiment [6], more than 32 µM.

For `CCOc1cc(/C=C2\SC(=S)NC2=O)ccc1O` [compound 5, RD0392], the IC50 in [5] came out at 3.5 µM; in [6], 3.6 µM.

`C#Cc1cc(/C=C2\SC(=S)NC2=O)ccc1OC` [compound 11, RD0448]: the IC50 in experiment [12] amounted to 16 µM; in experiment [9], 38 µM; in [6], 52 µM.

`COc1ccc(/C=C2\SC(=S)NC2=O)cc1` [compound 13, RD1486]: the IC50 in experiment [5] amounted to 17 µM; in [6], 9.7 µM.

With `COc1ccc(/C=C2\SC(=S)NC2=O)cc1/C=C/C1CCCCC1` [dscy-dFINDY], the IC50 in experiment [2] is 4.1 µM; in experiment [3] it was more than 32 µM.
